Among the data in patent publication US9169199B2, “Cycloalkyl guanidine F1F0-ATPase inhibitors and therapeutic uses thereof” (Lycera Corporation, priority 2010, dated 2015) are IC50 and EC50 values, retold here.

For one assay, the target named is T1, F1F0-ATPase (Bos taurus, UniProt P13621).
T1 construct: from tissue
The assay can be described thus: Inhibition of ATP synthesis by the F1F0-ATPase. It counts as biochemical. The procedure: (§1) Compounds in Example 4 above were tested for activity against F1F0-ATPase by measuring ATP synthesis. In addition, the compounds were assessed for cytotoxicity in Ramos cells. Inhibition of ATP synthesis by the F1F0-ATPase and cytotoxicity in Ramos cells were measured according to the procedures described in K. M. Johnson et al. Chemistry & Biology 2005, 12, 485-496.

The next assay deals with Ramos cells. The assay can be described thus: Cytotoxicity in Ramos cells. It counts as cell-based. Conditions: Homo sapiens, read-out: Ramos cell EC50. The procedure:
as §1

The term IC50 denotes the concentration at which inhibition is half-maximal. A low value points to greater potency in that assay. One may read the EC50 as the midpoint of the concentration-response curve. On F1F0-ATPase, `COC(=O)NC1CCC(N/C(=N\C(=O)c2ccc(OC)cc2)Nc2cc(F)cc(Cl)c2)CC1` (stereo not shown) [Compound 153] displayed an IC50 of under 10 µM. Besides, in the assay with Ramos cells, the EC50 was under 10 µM.
On to `COc1ccc(C(=O)/N=C(/Nc2cc(F)cc(Cl)c2)NC2CCC(NC(=O)c3ccccc3)CC2)cc1` (stereo not shown) [Compound 154], for which, on F1F0-ATPase, the half-inhibitory concentration (IC50) is under 10 µM. In the assay with Ramos cells, the EC50 is under 10 µM.
Turning to `CCOC(=O)NC1CCC(N/C(=N\C(=O)c2cccc(OC)c2)Nc2cc(F)cc(Cl)c2)CC1` (stereo not shown) [Compound 155], at F1F0-ATPase, the half-maximal inhibitory concentration (IC50) was under 10 µM. Besides, the 50% effective concentration (EC50) with Ramos cells is under 10 µM.
As for `COC(=O)NC1CCC(N/C(=N\C(=O)c2cccc(OC)c2)Nc2cc(F)cc(Cl)c2)CC1` (stereo not shown) [Compound 156], the IC50 on F1F0-ATPase is under 10 µM. In the assay with Ramos cells, the EC50 is under 10 µM.
The compound `COc1cccc(C(=O)/N=C(/Nc2cc(F)cc(Cl)c2)NC2CCC(NC(=O)c3ccccc3)CC2)c1` (stereo not shown) [Compound 157] showed an IC50 against F1F0-ATPase of under 10 µM. Moreover, the EC50 with Ramos cells was under 10 µM.
`CCOC(=O)NC1CCC(N/C(=N\C(=O)c2ccc(C)cc2)Nc2cc(F)cc(Cl)c2)CC1` (stereo not shown) [Compound 158] returned a 50% inhibitory concentration (IC50) at F1F0-ATPase of under 10 µM. The concentration for a half-maximal effect (EC50) with Ramos cells is under 10 µM.
The compound `CCOC(=O)NC1CCC(N/C(=N\C(=O)c2cccc(C)c2)Nc2cc(F)cc(Cl)c2)CC1` (stereo not shown) [Compound 159] came in with an IC50 on F1F0-ATPase of under 10 µM. For the same compound, in the assay with Ramos cells, the EC50 is under 10 µM.
As for `CCOC(=O)NC1CCC(N/C(=N\C(=O)c2ccc(C)c(F)c2)Nc2cc(F)cc(Cl)c2)CC1` (stereo not shown) [Compound 160], the IC50 against F1F0-ATPase is under 10 µM. Also, the EC50 in the assay with Ramos cells was under 10 µM.
`CCOC(=O)NC1CCC(N/C(=N\C(=O)c2ccc(F)c(C)c2)Nc2cc(F)cc(Cl)c2)CC1` (stereo not shown) [Compound 161] gave a 50% inhibitory concentration (IC50) at F1F0-ATPase of under 10 µM. Also, the concentration giving a half-maximal response (EC50) in the assay on Ramos cells was under 10 µM.
For `CC(C)(C)OC(=O)NC1CCC(NC(=NC(=O)c2ccc(Cl)cc2)NC2CCC(NC(=O)OC(C)(C)C)CC2)CC1` (stereo not shown) [Compound 162], on F1F0-ATPase, the half-inhibitory concentration (IC50) is over 10 µM. Besides, in the assay with Ramos cells, the 50% effective concentration (EC50) was over 10 µM.
As for `O=C(/N=C(/Nc1cc(F)cc(Cl)c1)NC1CCC(NC(=O)N2CCCC2)CC1)c1ccc(Cl)cc1` (stereo not shown) [Compound 163], the half-inhibitory concentration (IC50) against F1F0-ATPase is under 10 µM. Also, the EC50 in the assay on Ramos cells was under 10 µM.
As to `O=C(/N=C(/Nc1cc(F)cc(Cl)c1)NC1CCC(NC(=O)c2ccccc2)CC1)c1ccc(Cl)cc1` (stereo not shown) [Compound 164], the IC50 at F1F0-ATPase is under 10 µM. For the same compound, the EC50 in the assay with Ramos cells is under 10 µM.
Take `CCOC(=O)NC1CCC(N/C(=N\C(=O)c2ccc(Cl)cc2)Nc2cc(F)cc(Cl)c2)CC1` (stereo not shown) [Compound 165]: the half-maximal inhibitory concentration (IC50) against F1F0-ATPase was under 10 µM. The EC50 in the assay on Ramos cells is under 10 µM.
In the case of `COC(=O)NC1CCC(N/C(=N\C(=O)c2ccc(Cl)cc2)Nc2cc(F)cc(Cl)c2)CC1` (stereo not shown) [Compound 166], the half-maximal inhibitory concentration (IC50) against F1F0-ATPase is under 10 µM. The half-maximal effective concentration (EC50) with Ramos cells was under 10 µM.
On F1F0-ATPase, `CC(C)(C)OC(=O)NC1CCC(N/C(=N\C(=O)c2ccc(F)c(F)c2)Nc2cc(F)cc(Cl)c2)CC1` (stereo not shown) [Compound 167] displayed an IC50 of under 10 µM. In addition, in the assay on Ramos cells, the EC50 is under 10 µM.
In turn, `O=C(/N=C(/Nc1cc(F)cc(Cl)c1)NC1CCC(NC(=O)c2nccs2)CC1)c1ccc(F)c(F)c1` (stereo not shown) [Compound 168] showed a 50% inhibitory concentration (IC50) against F1F0-ATPase of under 10 µM. In addition, the EC50 in the assay with Ramos cells is under 10 µM.
Regarding `O=C(/N=C(/Nc1cc(F)cc(Cl)c1)NC1CCC(NC(=O)c2cccnc2)CC1)c1ccc(F)c(F)c1` (stereo not shown) [Compound 169], the IC50 against F1F0-ATPase is under 10 µM. In addition, the concentration for a half-maximal effect (EC50) in the assay with Ramos cells is under 10 µM.
The compound `O=C(/N=C(/Nc1cc(F)cc(Cl)c1)NC1CCC(NC(=O)c2cscn2)CC1)c1ccc(F)c(F)c1` (stereo not shown) [Compound 170] had a 50% inhibitory concentration (IC50) against F1F0-ATPase of under 10 µM. The 50% effective concentration (EC50) in the assay with Ramos cells is under 10 µM.
`O=C(/N=C(/Nc1cc(F)cc(Cl)c1)NC1CCC(NC(=O)c2ccccn2)CC1)c1ccc(F)c(F)c1` (stereo not shown) [Compound 171] registered a concentration for half-maximal inhibition (IC50) on F1F0-ATPase of under 10 µM. Besides, in the assay with Ramos cells, the concentration for a half-maximal effect (EC50) is under 10 µM.
Consider `O=C1CCC(N/C(=N\C(=O)c2ccc(C(F)(F)F)cc2)Nc2cc(F)cc(Cl)c2)CC1` [Compound 172], for which the IC50 at F1F0-ATPase was under 10 µM. For the same compound, the EC50 in the assay with Ramos cells was under 10 µM.
